Reference: patent US11413278B2, “Compounds and methods for promoting stress resistance” (priority 2015, dated 2022)
Like-named read-outs stand apart in the source and are kept apart here.

Key:
WI-38 cells [1] = conditions: read-out: Est. ED50; dose response 0.6-20 μM; H2O2-resistance
WI-38 cells [2] = test: Long-term effects on cell viability (5 days, ATP; morphology, PI imaging); type: cell-based; conditions: 10 μM; for Luminescence signal for ATP measurement, day-1 Average / Luminescence signal for ATP measurement, day-2 Average / Luminescence signal for ATP measurement, day-3 Average / Luminescence signal for ATP measurement, day-4 Average / Luminescence signal for ATP measurement, day-5 Average: n = 6; for ATP luminescence by day-5 normalized: DMSO ctrl = 100.0%;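 as to Luminescence signal for ATP measurement, day-2 Average: compounds at 10 µM with ATP read daily over 5 days of treatment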;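 as to Luminescence signal for ATP measurement, day-3 Average: compounds at 10 µM with ATP read daily over 5 days of treatment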;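 as to Luminescence signal for ATP measurement, day-4 Average: compounds at 10 µM with ATP read daily over 5 days of treatment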;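 as to Luminescence signal for ATP measurement, day-5 Average: compounds at 10 µM with ATP read daily over 5 days of treatment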
Protocol: In addition, cell death was scored by PI-imaging on day 2 and day 5 of treatment.
Applicants introduced molecules (at 10 uM final concentration) to WI-38 fibroblasts and then assayed cell viability (through ATP measurement) everyday, during a course of 5 days of continuous treatment. […] Applicants also examined the morphology and scored cell death (propidium iodide staining) for cells treated with the above molecules. Of these 14 molecules, some appeared to cause cell toxicity. […] Despite the observed long-term toxicity, these molecules are still interesting as they may act as anti-tumor agents in vivo, should they have more pronounced cytotoxicity on highly proliferative tumor cells. When cells were incubated with these molecules for ˜24 hrs and then subject to hydrogen peroxide for 3 hrs, these molecules are all protective. […] Some of these small molecules may be toxic by themselves under certain conditions, but by inducing protective mechanisms, they may trigger “hormesis” and therefore protect cells from oxidative stress.

FOXO3 = test: qPCR analysis of FOXO3-regulated genes; type: cell-based, human; conditions: Homo sapiens, 24 h, Assay 10(m), at 10 uM, qPCR
Protocol: (§1) For qPCR analysis, WI-38 cells were treated with small molecules (at 10 μM) (biological quadruplicates) for 24 hrs and processed for RNA isolation and reverse transcription (RT) with the Cells-to-Ct Kit (Life Technologies), following manufacturer's instructions. RT products were diluted with H2O and used for qPCR analysis on an ABI 7300 system (Life Technologies) (technical triplicates). Relative expression levels of target genes were normalized to the genes B2M, PPIA and GAPDH. To knock down the expression of FOXO3 or NRF2, WI-38 cells were transfected, using the RNAiMAX reagents (Life Technologies), with siRNA oligos (at 10 nM final concentration, 10 ml culture medium) for FOXO3 (Life Technologies) or NRF2 (Integrated DNA Technologies) on 10-cm petri dishes for 36 hrs, and then detached and aliquoted onto 96-well (for qPCR analysis) or 384-well plates (for H2O2-stress treatment). ˜24 hrs later, small molecules were introduced and incubated with cells for 24 hrs. Cells were then either processed with the Cells-to-Ct Kit to prepare RT products for qPCR analysis or subjected to H2O2 (700 μM) for 3 hrs and assayed for viability. The knockdown efficiency of FOXO3 or NRF2 was checked at 36 hrs post-transfection and at the end as well.
(§2) For qPCR analysis, WI-38 cells were treated with small molecules (at 10 μM) (biological quadruplicate) for 24 hrs and processed for RNA isolation and reverse transcription (RT) with the Cells-to-Ct Kit (Life Technologies), following manufacturer's instructions. RT products were diluted with H2O and used for qPCR analysis on a LightCycler 480 system (Roche) (technical triplicates). Relative expression levels of target genes were normalized to the genes B2M, PPIA and GAPDH. To knock down the expression of FOXO3 or NRF2, WI-38 cells were transfected with siRNA oligos (at 10 nM final concentration) for FOXO3 (Life Technologies) or NRF2 on 10-cm petri dish for 36 hrs, and then detached and aliquoted onto 96-well plates. ˜24 hrs later, small molecules were introduced and incubated with cells for 24 hrs. Cells were then processed with the Cells-to-Ct Kit to prepare RT products for qPCR analysis. The knockdown efficiency of FOXO3 or NRF2 was checked at 36 hrs post-transfection and at the end as well.
Many perturbations that increase lifespan and stress resistance in animals do so in a FOXO-dependent fashion (Kenyon, 2010c). Humans have several FOXO genes, but FOXO3, which promotes stress resistance in mammalian cell culture (Kops et al., 2002; Nemoto and Finkel, 2002; Tran et al., 2003), is the one that has been linked to exceptional longevity in humans (Anselmi et al., 2009; Flachsbart et al., 2009; Li et al., 2009; Pawlikowska et al., 2009; Soerensen et al., 2010; Willcox et al., 2008). FOXO1, in contrast, appears to be responsible for some symptoms of diabetes in mouse models (Cheng and White, 2011). For this reason, applicants have focused on analyzing potential ability of our small molecules to activate FOXO3. […] Another 4 molecules (Gr-7A, Gr-7C, O12 and O23) could induce robust expression (greater than 1.5-fold) of at least 2 FOXO3 target genes.

NRF2 [3] = test: qPCR analysis of NRF2-regulated genes; type: cell-based, human; conditions: Homo sapiens, 24 h, Assay 12(o), at 10 uM, qPCR
Protocol: as §1, §2
NRF2/SKN-1, the oxidative stress and xenobiotic phase 2 detoxification protein, can extend animal lifespan (Sykiotis and Bohmann, 2008; Tullet et al., 2008). Applicants analyzed these small molecules for their ability to increase the expression of NRF2-regulated genes, including HMOX1 (heme oxygenase (decycling) 1; anti-oxidant), NQO1 (NAD(P)H dehydrogenase, quinone 1; phase 2 detoxification enzyme), GCLC (glutamate-cysteine ligase, catalytic) and GSTM1 (glutathionine S transferase) (Hur and Gray, 2011; Suzuki et al., 2013).

NRF2 [4] = test: in vitro; type: cell-based, human; conditions: 10 uM; YES/NO
Protocol: as §1, §2
Of these, O15 and O20 consistently (in 3 of 3 experiments) required NRF2 to promote H2O2-resistance, and their resistance capacities were reduced by ˜90% on average upon NRF2 knockdown under conditions tested.

C. elegans = C. elegans lifespan assays (liquid and plate); type: in vivo, Caenorhabditis elegans; conditions: Caenorhabditis elegans, at 66 uM
[5] = test system: human dermal fibroblast (HDF) primary cells; test: H2O2-resistance in primary human dermal fibroblasts; type: cell-based; conditions: YES/NO
[6] = test system: phosphorylated γH2A.X and TP53BP1; test: DNA damage marker analysis (immuno-staining)
Protocol: WI-38 cells were seeded on 96-well plates and cultured for 24 hrs and then incubated with small molecules for another 24 hrs. As the positive control to damage DNA, H2O2 was supplemented at 700 μM final concentration for the last 3 hrs. Cells were washed with phosphate-buffered saline (PBS), fixed with 4% paraformaldehyde and then blocked with 5% normal goat serum (Cell Signaling), plus 0.3% Triton X-100, for 1 hr. Primary antibody cocktail (rabbit anti-phospho-histone γH2A.X (Ser-139), 1:100; anti-phospho-TP53BP1 (Ser-1778), 1:100), prepared in 1% BSA and 0.3% Triton X-100/PBS, was then introduced and incubated overnight at 4 C. Next day, samples were washed with PBS and further incubated with fluorophore-conjugated secondary antibody (1:1,000) for 1 hr in the dark. Samples were then washed and incubated with DAPI dye (Life Technologies) (4 μg/ml final concentration) for the last 10 minutes. Images were collected on an INCell Analyzer 2000 (GE) and analyzed with the Developer software.
WI-38 cells were seeded (˜8,000 cells per well) on 96-well plates and cultured for 24 hrs and then incubated with small molecules for another 24 hrs. Doxorubicin (300 nM, 24 hrs) and H2O2 (700 μM, 3 hrs) were also introduced as the positive controls to damage DNA. Cells were washed with phosphate-buffered saline (PBS), fixed with 4% paraformaldehyde for 30 min and then blocked with 5% normal goat serum (Cell Signaling) and 0.3% Triton X-100 for 1 hr. Primary antibody cocktail (Cell Signaling, rabbit anti-phospho-histone γH2A.X (Ser-139), 1:100; anti-phospho-TP53BP1 (Ser-1778), 1:100) was prepared in PBS with 1% BSA and 0.3% Triton X-100 and incubated overnight at 4° C. Next day, samples were washed with PBS and further incubated with fluorophore-conjugated secondary antibody (1:1,000) for 1 hr in dark. Samples were then washed and incubated with DAPI dye (Life Technologies) (4 μg/ml final concentration) for 30 minutes. Images were collected on the INCell Analyzer 2000 (10× objective) and analyzed with the Developer Toolbox.

[7] = Batch 1, day-0 luminescence = 320956 ± 24708
[8] = Batch 2, day-0 luminescence = 229312 ± 17487
[9] = read-out: Induction of FOXO3-regulated genes: GADD45A normalized fold-change
[10] = read-out: Induction of NRF2-regulated genes: NQO1 normalized fold-change

Structure (SMILES): CC(C)CCOc1ccc(C(=O)C(CN2CCOCC2)c2ccccc2)cc1 (stereo not shown) [O30]
- EC50 (WI-38 cells [1]): 4.2 µM

Structure (SMILES): Cc1ccc(C(=O)Nc2ccc3ccc4cccnc4c3n2)cc1 [Gr-3D]
- EC50 (WI-38 cells [1]): 4.96 µM

Structure (SMILES): CO[C@H]1C[C@@H]2CC[C@@H](C)[C@@](O)(O2)C(=O)C(=O)N2CCCC[C@H]2C(=O)O[C@H]([C@H](C)C[C@@H]2CC[C@@H](O)[C@H](OC)C2)CC(=O)[C@H](C)/C=C(\C)[C@@H](O)[C@@H](OC)C(=O)[C@H](C)C[C@H](C)/C=C/C=C/C=C/1C [Rapa]
- Luminescence signal for ATP measurement, day-1 Average (WI-38 cells [2]; [7]): 454546
- Luminescence signal for ATP measurement, day-2 Average (WI-38 cells [2]; [7]): 519403
- Luminescence signal for ATP measurement, day-3 Average (WI-38 cells [2]; [7]): 545026
- Luminescence signal for ATP measurement, day-4 Average (WI-38 cells [2]; [7]): 552160
- ATP luminescence by day-5 normalized (WI-38 cells [2]; Batch 1): 53.3%
- Luminescence signal for ATP measurement, day-5 Average (WI-38 cells [2]; [7]): 547771
- Luminescence signal for ATP measurement, day-1 Average (WI-38 cells [2]; [8]): 239521
- Luminescence signal for ATP measurement, day-2 Average (WI-38 cells [2]; [8]): 221640
- Luminescence signal for ATP measurement, day-3 Average (WI-38 cells [2]; [8]): 244073
- Luminescence signal for ATP measurement, day-4 Average (WI-38 cells [2]; [8]): 276911
- ATP luminescence by day-5 normalized (WI-38 cells [2]; Batch 2): 47.3%
- Luminescence signal for ATP measurement, day-5 Average (WI-38 cells [2]; [8]): 262898

Structure (SMILES): Oc1cc(-c2ccccc2)nc2c(-c3ccc(Cl)cc3)c(Cc3ccccc3)nn12 [O26]
- fold induction at 10 µM (FOXO3; [9]): 3.36
- fold induction at 10 µM (FOXO3; read-out: Induction of FOXO3-regulated genes: SESN1 normalized fold-change): 2.21
- fold induction at 10 µM (FOXO3; read-out: Induction of FOXO3-regulated genes: TXNIP normalized fold-change): 1.16
- fold induction at 10 µM (NRF2 [3]; read-out: Induction of NRF2-regulated genes: GSTM1 normalized fold-change): 0.85
- fold induction at 10 µM (NRF2 [3]; [10]): 0.44
- Assay 17: NRF2-dependency for H2O2-resistance (NRF2 [4]): YES
- ILS at 66 µM (C. elegans; Assay 2(z), 1.0 × 10^9 bacteria/ml, wild type + FuDR (2012 July), read-out: Lifespan assay in liquid): 23.9%
- ILS at 66 µM (C. elegans; Assay 3(aa), 2.5 × 10^9 bacteria/ml, wild type + FuDR, read-out: Lifespan assay in liquid): 4.6%
- ILS at 66 µM (C. elegans; Assay 4(ab), 2.0 × 10^10 bacteria/ml, CF512 worms, no FuDR, read-out: Lifespan assay on plates): 27.1%
- ILS at 66 µM (C. elegans; Assay 5(ac), 1.0 × 10^11 bacteria/ml, CF512 worms, no FuDR, read-out: Lifespan assay on plates): 8.3%
- EC50 (WI-38 cells [1]): 20 µM

Structure (SMILES): Cc1cc(C)n(-c2nc(O)cc(-c3ccccc3)n2)n1 [O28]
- EC50 (WI-38 cells [1]): 5.4 µM

Structure (SMILES): CCCCCCc1cc(C=O)c(O)cc1O [O29]
- EC50 (WI-38 cells [1]): 15.3 µM

Structure (SMILES): O=C(CC1(O)C(=O)Nc2ccc(Br)cc21)c1ccc(Cl)cc1 (stereo not shown) [O19]
- Assay 6: H2O2-resistant, at 10 uM, human dermal fibroblast (HDF) primary cells [5]: YES
- fold induction at 10 µM (FOXO3; [9]): 0.84
- fold induction at 10 µM (NRF2 [3]; [10]): 1.91
- EC50 (WI-38 cells [1]): 20 µM

Structure (SMILES): OO [H2O2, hydrogen peroxide, reference compound]
- TP53BP1-positive cells [6]: ~45.8±5.1%
- γH2A.X-positive cells [6]: ~50.9±4.2%

Structure (SMILES): COCCCN1Cc2cccc(C(N)=O)c2C1=O [O2]
- EC50 (WI-38 cells [1]): 20 µM

Structure (SMILES): Nc1c(Cl)ncnc1NCCCn1ccnc1 [O31]
- EC50 (WI-38 cells [1]): 10.6 µM

Structure (SMILES): O=C(O)c1cc(Cl)c(Cl)cc1C(=O)Nc1ccccc1 [O25]
- Assay 6: H2O2-resistant, at 10 uM, human dermal fibroblast (HDF) primary cells [5]: YES
- EC50 (WI-38 cells [1]): 8.5 µM
